In patent US20240018146A1, “COMPOSITIONS AND METHODS OF USING THE SAME FOR TREATMENT OF NEURODEGENERATIVE AND MITOCHONDRIAL DISEASE” (MITOKININ, INC., priority 2020, published 2024):
Like-named read-outs stand apart in the source and are kept apart here.

What was measured:
HeLa MKYP cells [1] = test: Cell death measured by DAPI staining, with 1 μM FCCP/oligomycin or no toxin (no FO); type: cell-based
Procedure, shortened: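 HeLa MKYP cells were treated with compounds alongside 1 μM FCCP/oligomycin or no toxin for 6 or 6.5 h. Cell death was scored by DAPI staining, with H2O2 treatment as the death control.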

[2] = Mitotoxicity / Mitotox safety margin (therapeutic window); type: cell-based
HeLa MKYP cells [3] = test: Human mitophagy assay (HeLa mKeima assay, FACS); type: cell-based; conditions: read-out: Mitophagy induction EC50
Procedure, shortened: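 HeLa cells carrying the pH-sensitive mtKeima tag incubated 16 h with compound at several concentrations, then 1 uM FCCP/oligomycin for 6 h. FACS detects mitochondria in lysosomes through the Keima emission shift, quantified as percentage of cells in mitophagy.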

pS129 α-syn = test: Preformed fibril (PFF) model in primary neuron culture, pS129 α-syn; type: cell-based; conditions: increasing doses
Method: 4. Preformed Fibril Model
Mouse and human alpha-synuclein monomers have been sourced commercially, then pre-formed fibrils have been generated as per the detailed protocol provided by the MJFF. For in vitro experiments primary hippocampal neurons isolated from P0 pups were grown for 7 days after which PFFs at 5 ug/ml were introduced Pre-formed fibrils will be introduced via stereotactic injection into the striatum of wt (C57BL/6J, Jax #000664) and transgenic A53T mice (B6;C3-Tg(Prnp-SNCA*A53T)83Vle/J, Jax #004479). Cohorts of drug-treated (oral gavage) and untreated animals will then be allowed to age for up to 6 months, at which point they will be sacrificed and perfused. Brains will be removed and fixed, then sectioned for analysis. We anticipate that untreated A53T animals will show significant spreading of aggregated alpha-synuclein pathology and pS129 staining, as well as some possible neurodegeneration; wt animals are also expected to show pS129 synuclein staining and synuclein aggregation, albeit less than that seen in the A53T background.

[4] = Inspection of crystallization and round cells; type: physicochemical; design: key: 1=yes crystals; 0=no crystals
Method: 5. Inspection of Crystallization and Round Cells
Briefly, the Hela MKYP (Mito-Keima/YFP-Parkin) cells were seeded at 10K cells/well. EP/MTK compounds were added at seeding (cells were still in suspension). The cells were incubated with the EP/MTK compounds for 16 hours, then 1 μM FCCP/oligomycin was added for 6 hours. Prior to harvesting, cells were scored by eye under 20× magnification for the presence or absence of crystalline or aggregated compound, or round cells.

SMILES | Highest safe dose (cytotoxicity; no FO; safe means DAPI+ <20%) (HeLa MKYP cells [1]) | Max % death with 1 μM FO (HeLa MKYP cells [1]) | Mito-Safety Index (highest safe dose/EC50) [2] | Highest safe dose (μM) (mitotox or cytotox) [2] | EC50 (HeLa MKYP cells [3]; Homo sapiens, HeLa) | pS129 α-syn (250-12) in primary neuron culture (pS129 α-syn) | pS129 α-syn (monomer) in primary neuron culture (pS129 α-syn) | pS129 α-syn in primary neuron culture (pS129 α-syn) | EC50 (HeLa MKYP cells [3]) | visual inspection of crystallization ([4]; 0.1 μM compound) | visual inspection of crystallization ([4]; 0.3 μM compound) | visual inspection of crystallization ([4]; 0.9 μM compound) | visual inspection of crystallization ([4]; 2.8 μM compound) | visual inspection of crystallization ([4]; 8.3 μM compound) | visual inspection of crystallization ([4]; 25.0 μM compound, HeLa MKYP culture, 20× magnification)
C[C@H]1CN([C@H]2CCc3ccccc3[C@@H]2Nc2ncnc3[nH]c(C(F)(F)F)cc23)CCO1 (single isomer, unassigned) [EP-0040503] | 25.0 µM | 7.4% | 69.05 | 9.1 µM | 130 nM | reduces | reduces | reduces |  |  |  |  |  |  | 
c1ccc2c(c1)OC[C@H](C1CCOCC1)[C@H]2Nc1ncnc2[nH]c(C3CC3)cc12 (single isomer, unassigned) [EP-0040587] | 25.0 µM | 21.5% | 230.81 | 21.5 µM | 90 nM | reduces | reduces | reduces |  |  |  |  |  |  | 
Fc1ccc2c(c1)OC[C@H](N1C[C@@H]3COC[C@H]3C1)[C@H]2Nc1ncnc2[nH]c(C3CC3)cc12 (single isomer, unassigned) [EP-0040874] | 25.0 µM | 14.4% | 94.72 | 13.9 µM |  | reduces | reduces | reduces | 150 nM |  |  |  |  |  | 
c1ccc2c(c1)OCC(N1CC3CCOC3C1)C2Nc1ncnc2[nH]c(C3CC3)cc12 (single isomer, unassigned) [EP-0041668] | 25.0 µM | 8.0% |  |  |  | reduces | reduces | reduces | 140 nM |  |  |  |  |  | 
c1ccc2c(c1)OCC(N1CC3CCOC3C1)C2Nc1ncnc2[nH]c(C3CC3)cc12 (single isomer, unassigned) [EP-0041670] | 25.0 µM | 5.4% |  |  |  | reduces | reduces | reduces | 460 nM |  |  |  |  |  | 
COC1CN([C@@H]2COc3ccccc3[C@H]2Nc2ncnc3[nH]c(C(F)(F)F)cc23)C1 [EP-0040850] | 25.0 µM | 10.3% | 88.53 | 21.4 µM | 240 nM | reduces | reduces | reduces |  |  |  |  |  |  | 
COC1CN([C@H]2CCc3ccccc3[C@@H]2Nc2ncnc3[nH]c(C(F)(F)F)cc23)C1 [EP-0040857] | 25.0 µM | 17.0% | 116.38 | 18.7 µM |  | reduces | reduces | reduces | 160 nM |  |  |  |  |  | 
C[C@@H]1CN([C@@H]2COc3cc(F)ccc3[C@H]2Nc2ncnc3[nH]c(C4CC4)cc23)C[C@H](C)O1 [EP-0040949] | 25.0 µM | 21.1% | 114.83 | 1.2 µM | 10 nM |  |  |  |  |  |  |  |  |  | 
C[C@@H]1CN([C@@H]2COc3ccccc3[C@H]2Nc2ncnc3[nH]c(C(F)(F)F)cc23)CCO1 [EP-0040956] | 25.0 µM | 24.7% | 52.10 | 9.7 µM | 190 nM |  |  |  |  |  |  |  |  |  | 
C[C@@H]1CN([C@@H]2COc3ccccc3[C@H]2Nc2ncnc3[nH]c(C4CC4)cc23)CCO1 [EP-0040958] | 25.0 µM | 14.1% | 29.33 | 1.7 µM | 60 nM |  |  |  |  |  |  |  |  |  | 
C[C@H]1CN([C@@H]2COc3ccccc3[C@H]2Nc2ncnc3[nH]c(C(F)(F)F)cc23)CCO1 [EP-0040980] | 19.4 µM | 14.7% | 50.83 | 19.4 µM | 380 nM |  |  |  |  |  |  |  |  |  | 
C[C@H]1CN([C@H]2COc3ccccc3[C@@H]2Nc2ncnc3[nH]c(C4CC4)cc23)CCO1 [EP-0040999] | 25.0 µM | 12.1% | 105.78 | 15.1 µM | 140 nM |  |  |  |  |  |  |  |  |  | 
C[C@@H]1CN([C@@H]2COc3cc(F)ccc3[C@H]2Nc2ncnc3[nH]c(C(F)(F)F)cc23)CCO1 [EP-0041088] | 25.0 µM | 16.2% | 128.93 | 15.7 µM | 120 nM | reduces | reduces | reduces |  |  |  |  |  |  | 
C[C@@H]1CN([C@H]2COc3cc(F)ccc3[C@@H]2Nc2ncnc3[nH]c(C4CC4)cc23)CCO1 [EP-0041122] | 16.7 µM | 16.9% | 37.43 | 2.0 µM | 50 nM |  |  |  |  |  |  |  |  |  | 
C[C@H]1CN([C@@H]2COc3cc(F)ccc3[C@H]2Nc2ncnc3[nH]c(C4CC4)cc23)CCO1 [EP-0041125] | 25.0 µM | 9.6% | 45.69 | 7.4 µM | 160 nM |  |  |  |  |  |  |  |  |  | 
CO[C@@H]1CCN([C@H]2COc3ccccc3[C@@H]2Nc2ncnc3[nH]c(C(F)(F)F)cc23)C1 [EP-0041161] | 25.0 µM | 8.5% | 75.49 | 3.4 µM | 50 nM | reduces | reduces | reduces |  |  |  |  |  |  | 
CO[C@H]1CCN([C@H]2COc3ccccc3[C@@H]2Nc2ncnc3[nH]c(C(F)(F)F)cc23)C1 [EP-0041172] | 25.0 µM | 8.4% | 121.36 | 1.1 µM | 10 nM |  |  |  |  |  |  |  |  |  | 
CO[C@@H]1CCN([C@H]2COc3ccccc3[C@@H]2Nc2ncnc3[nH]c(C4CC4)cc23)C1 [EP-0041451] | 25.0 µM | 6.5% | 87.93 | 0.7 µM | 10 nM |  |  |  |  |  |  |  |  |  | 
CO[C@H]1CCN([C@H]2COc3ccccc3[C@@H]2Nc2ncnc3[nH]c(C4CC4)cc23)C1 [EP-0041517] | 25.0 µM | 4.8% | 34.73 | 1.1 µM | 30 nM |  |  |  |  |  |  |  |  |  | 
COC[C@H]1CCN([C@H]2COc3ccccc3[C@@H]2Nc2ncnc3[nH]c(C4CC4)cc23)C1 [EP-0041546] | 25.0 µM | 6.6% | 21.52 | 3.6 µM |  |  |  |  | 170 nM |  |  |  |  |  | 
c1coc(CNc2ncnc3[nH]cnc23)c1 [Kinetin, kinetin, reference compound] |  |  |  |  |  |  |  |  |  | 0 | 0 | 0 | 0 | 0 | 0
